PMC10916402, “Meropenem-ANT3310, a unique β-lactam-β-lactamase inhibitor combination with expanded antibacterial spectrum against Gram-negative pathogens including carbapenem-resistant Acinetobacter baumannii” (Antimicrobial Agents and Chemotherapy, 2024)
Converted amounts (≈) assume the structure as drawn. Like-named read-outs stand apart in the source and are kept apart here.

How the values were obtained:
[1] = system: A. baumannii clinical isolates; experiment: Broth microdilution MIC, A. baumannii clinical isolates; type: cell-based, Acinetobacter baumannii; settings: for MIC90: read-out: MIC90
Method: (§1) All isolates were randomly selected from the frozen culture collection of IHMA collected in 2018 and 2019. Matrix-assisted laser desorption ionization-time of flight mass spectrometry was used to confirm the identity of the organisms tested (Bruker Daltonics, Bremen, Germany).
(§2) MICs for all antimicrobial agents were determined at IHMA by broth microdilution in accordance with both CLSI ([17]) and EUCAST ([18]) guidelines. Microtiter panels were prepared by IHMA and stored at −70°C in cation-adjusted Mueller Hinton broth (CAMHB) (Becton Dickinson). Iron-depleted CAMHB was used to test cefiderocol. Panels containing ANT3310 were prepared fresh on the day of testing. […] MIC values corresponded to the first well with no visible growth. Quality control testing was performed on each day of testing with E. coli ATCC 25922, P. aeruginosa ATCC 27853, K. pneumoniae ATCC 700603 and BAA 1705, and A. baumannii NCTC 13304. MICs were interpreted using 2023 CLSI ([17]) and EUCAST ([18]) BPs.

[2] = system: carbapenem-resistant Acinetobacter baumannii (CRAB) clinical isolates; experiment: Broth microdilution MIC, CRAB isolates; type: cell-based; settings: 2018 Global collection, N 363
Method: as §1, §2

[3] = system: KPC-producing Enterobacterales (KPC-CRE); experiment: organism not typed; type: cell-based
Method: as §1, §2

[4] = system: OXA-producing Enterobacterales (OXA-CRE); experiment: organism not typed; type: cell-based
Method: as §1, §2

[5] = 2018 Global collection, All A. baumannii, N 500
[6] = 2018 Global collection, All A. baumannii, N 500, EUCAST BP
[7] = 180 KPC-producing Enterobacterales, EUCAST BP
[8] = 252 OXA-producing Enterobacterales, EUCAST BP

## NCC[C@H](O)C(=O)N[C@@H]1C[C@H](N)[C@@H](O[C@H]2O[C@H](CN)[C@@H](O)[C@H](O)[C@H]2O)[C@H](O)[C@H]1O[C@H]1O[C@H](CO)[C@@H](O)[C@H](N)[C@H]1O [Amikacin, amikacin]
[1]; [5]
  Number of isolates inhibited at MIC of 0.5 µg/mL: 2
  Number of isolates inhibited at MIC of 1 µg/mL: 42
  Number of isolates inhibited at MIC of 2 µg/mL: 96
  Number of isolates inhibited at MIC of 4 µg/mL: 33
  Number of isolates inhibited at MIC of 8 µg/mL: 12
  Number of isolates inhibited at MIC of 16 µg/mL: 11
  Number of isolates inhibited at MIC of 32 µg/mL: 13
  Number of isolates inhibited at MIC of >32 µg/mL: 291
[1]; 2018 Global collection, All A. baumannii, N 500, CLSI BP, for MEM-ANT3310 % at ≥16 µg/mL
  CLSI % Res: 58.2%
[1]; 2018 Global collection, All A. baumannii, N 500, CLSI BP, for MEM-ANT3310 % inhibited at ≤8 µg/mL
  CLSI % Sus: 39.2%
[1]; [6]
  EUCAST % Res: 63%
  EUCAST % Sus: 37%
[1]; Acinetobacter baumannii, 2018 Global collection, All A. baumannii, N 500, read-out: MIC50
  MIC50: > 32 µg/mL
[1]; Acinetobacter baumannii, 2018 Global collection, All A. baumannii, N 500
  MIC90: > 32 µg/mL
[1]; Acinetobacter baumannii, A. baumannii, one or both of the 2018/2019 collections
  MIC90: ≥ 32 µg/mL
[2]; CRAB (MEM MICs >4 µg/mL)
  Number of isolates inhibited at MIC of 0.5 µg/mL: 1
  Number of isolates inhibited at MIC of 1 µg/mL: 9
  Number of isolates inhibited at MIC of 2 µg/mL: 25
  Number of isolates inhibited at MIC of 4 µg/mL: 20
  Number of isolates inhibited at MIC of 8 µg/mL: 5
  Number of isolates inhibited at MIC of 16 µg/mL: 10
  Number of isolates inhibited at MIC of 32 µg/mL: 11
  Number of isolates inhibited at MIC of >32 µg/mL: 282
[2]; CRAB, CLSI BP, for MEM-ANT3310 % at ≥16 µg/mL
  CLSI % Res: 77.7%
[2]; CRAB, CLSI BP, for MEM-ANT3310 % inhibited at ≤8 µg/mL
  CLSI % Sus: 19.3%
[2]; CRAB, EUCAST BP
  EUCAST % Res: 83.5%
  EUCAST % Sus: 16.5%
[2]; Acinetobacter baumannii, CRAB (MEM MICs >4 µg/mL), read-out: MIC50
  MIC50: > 32 µg/mL
[2]; Acinetobacter baumannii, CRAB (MEM MICs >4 µg/mL), read-out: MIC90
  MIC90: > 32 µg/mL
[3]
  MIC50: 16 µg/mL (≈ 27.3 µM)
  MIC90: 64 µg/mL (≈ 109 µM)
[3]; 180 KPC-producing Enterobacterales, CLSI BP, for MEM-ANT3310 % at ≥16 µg/mL
  CLSI % Res: 11.7%
[3]; 180 KPC-producing Enterobacterales, CLSI BP, for MEM-ANT3310 % inhibited at ≤8 µg/mL
  CLSI % Sus: 57.8%
[3]; [7]
  EUCAST % Res: 54.4%
  EUCAST % Sus: 45.6%
[4]
  MIC50: 16 µg/mL (≈ 27.3 µM)
  MIC90: > 64 µg/mL
[4]; 252 OXA-producing Enterobacterales, CLSI BP, for MEM-ANT3310 % at ≥16 µg/mL
  CLSI % Res: 32.1%
[4]; 252 OXA-producing Enterobacterales, CLSI BP, for MEM-ANT3310 % inhibited at ≤8 µg/mL
  CLSI % Sus: 59.5%
[4]; [8]
  EUCAST % Res: 52.0%
  EUCAST % Sus: 48.0%
